Experimental data: patent publication US20080063643A1, “Peptide Derived From Hepatitis C Virus” (priority 2003, published 2008)
No end group written: not given here.

Experiments:
[1] = test system: C1R-A2402 cell pulsed with a corresponding peptide; assay: 6-hour 51Cr release assay of peptide-stimulated PBMC (Example 2); type: cell-based, human; conditions: cells pre-loaded with corresponding peptide versus HIV peptide; three E/T ratios
Protocol: The cytotoxicity of these peptide-stimulated PBMC was examined by a 6-hour ^51Cr release assay (FIG. 15). Peptide-stimulated PBMC showing positive response in the IFN-γ production assay (described above) was cultured and grown in vitro only with IL-2. Then, cytotoxicity against C1R-A2402 cell pulsed with a corresponding peptide or an HIV peptide (negative control) was tested by a standard 6-hour ^51Cr release assay at three different E/T cell ratios.
The peptide-stimulated PBMC used in the experiment shown in FIG. 15 was tested for cytotoxicity against C1R-A2402 cells pulsed with a corresponding peptide in the presence of 20 μg/ml of an anti-HLA-class I (W6/32, IgG2a), anti-HLA-class II (H-DR-1, IgG2a), anti-CD8 (Nu-Ts/c, IgG2a) or anti-CD4 (Nu-Th/i, IgG1) monoclonal antibody (mAb). An anti-CD14 (JML-H14, IgG2a) mAb was used as a negative control.

[2] = test system: C1R-A2402 cell stably transfected with NS5A gene; conditions: 6-hour 51Cr release, three E/T ratios
Protocol: In order to prepare a stable transfectant cell line, either pCR3.1-NS5A or pCR3.1-HLA-A3101 (negative control) was transfected to C1R-A2402 cell by electroporation using a Gene Pulser (BioRAD, Richmond, Calif.) These cells were cultured for 30 to 40 days in the presence of geneticin (G418), and then geneticin resistant cells were collected.
Next, cytotoxicity was tested against C1R-A2402 cell that was stably transfected with NS5A gene and used as a target cell.
Then, cytotoxicity was tested by a 6-hour ^51Cr release assay using C1R-A2402 cell that was stably transfected with NS5A gene as a target cell. C1R-A2402 cell that was stably transfected with a negative control gene (HLA-A3101) was used as a negative control, and C1R-A2402 cell that was pulsed with NS5A-2132 peptide was used as a positive control. A 6-hour ^51Cr release assay was carried out at three different E/T ratios. The values are expressed as the mean±SD of percentage of specific lysis.

[3] = test system: PBMCs from HLA-A24+ patients infected with HCV-1b and HLA-A24+ HDs; assay: IFN-γ production by peptide-stimulated PBMC (Example 2); type: cell-based, human; conditions: C1R-A2402 cells pulsed with the negative control peptide
Protocol: Peptide-specific CTL precursor cells were detected by the method as described in Hida et al. (Cancer Immunol Immunother 2002; 51: 219-228). For an inhibition assay, 20 μg/ml of anti-HLA class I (W6/32, IgG2a), anti-CD8 (Nu-Ts/c, IgG2a), anti-CD4 (Nu-Th/i, IgG1b) and anti-HLA class II (H-DR-1, IgG) monoclonal antibodies were used.
PBMCs from HLA-A24^+ patients infected with HCV-1b (n=12, 6 CH patients, 3 LC patients, and 3 HCC patients) and HLA-A24^+ HDs (n=5) without HCV infection were cultured with each of the 6 types of peptides (purity >90%) or a control HIV peptide for 13 days, and examined for IFN production in response to C1R-A2402 cell pulsed with a corresponding peptide. PBMCs from HLA-A24^+ HCV-1b^+ patients (n=12) and HDs (n=5) were stimulated with any of the 6 types of peptides in 4 wells (15×10^4/well). On day 14 of the culture, the peptide-stimulated PBMCs (80 to 120×10^4/well) were separately collected from each well and divided into quarters. Two portions of them were tested separately for the ability to produce IFN-γ in response to C1R-A2402 cells pulsed with the corresponding peptide. The remaining two portions were tested with cells using the negative control peptide (HIV). The level of IFN-γ produced in response to the HIV peptide (<50 pg/ml) was subtracted as background.

Row | Sequence | cytotoxicity of peptide-stimulated PBMC [1] | cytotoxicity against NS5A-transfected cells versus negative control gene [2] | level of IFN-γ produced in response to the peptide (background) [3]
1 | RYAPACKPL [No. 3] | showed a significant level of cytotoxicity | showed a higher cytotoxicity level | 
2 | RYLRDQQLLGI [HIV peptide] |  |  | < 50 pg/mL
